The values that follow come from US12329764B2, “Composition for promoting normal urinary function” (Vidya Herbs, Inc., priority 2018, dated 2025).

The subject of test [1] is BPH model rats. Put plainly: Prostate growth in testosterone induced BPH rats. The test is classed as in vivo, Wistar rats. As to the method: Forty-two male Wistar rats (10 week old) were purchased from Biogen, Bangalore, India (CPCSEA Reg. No. 971/bc/06). The animals were housed in accordance with the CPCSEA (Committee for the Purpose of Control and Supervision of Experiments on Animals) guidelines. After a one-week acclimatization period the animals were housed in rooms maintained at 22±2° C. and 30-70% humidity. Water and standard pellet diet were given ad libitum. The animals were randomly divided into seven groups, each group consisting of six animals with less than 20% mean body weight range.
(§1) BPH was induced in rats using testosterone 5 mg/kg subcutaneously and a simultaneous treatment with different doses of saw palmetto preparations viz. Saw palmetto oil (SPO) and the inventive composition (200 and 400 mg/kg b.w.) or Finasteride (1 mg/kg b.w.) p.o., was followed for 21 days (Table 1). The inventive composition (VISPO) was a composition of saw palmetto oil having 3% β-sitosterol. At the end of the treatment period, blood was collected prior to the necropsy. Animals were sacrificed by overdose of anesthetics. The vital parameters such as prostate weight, prostate weight to body weight ratio, growth inhibition of prostate, serum testosterone level, expression of inflammatory and apoptotic proteins in prostate tissue were evaluated.
Following a 21-day treatment with the saw palmetto oil preparations and/or Finasteride, prostate tissues were excised, rinsed and weighed immediately after removal. The PW/BW ratio was calculated using the following equation: PW/BW ratio=(Prostate weight of each animal from experimental group/Body weight of each animal from experimental group)×1000. The percentage of growth inhibition was calculated as follows: 100−[(treated group−control group)/(BPH group−control group)]×100.

Test [2] deals with hyperplastic patterns in prostate tissue of BPH rats. Description: Histology (H&E) of prostate tissue of BPH rats. The format is in vivo, Wistar rats. The following applies: finasteride group 1 mg/kg. On the procedure: as §1
The prostate tissue samples were fixed in 4% formalin, dehydrated with a graded alcohol series, embedded in paraffin, and then cut into 4 μm thickness. The sections were stained with hematoxylin and eosin (H&E, Sigma-Aldrich, St. Louis, MO, USA). The images were captured using a microscope (Leica, Germany).

The term Inhibition of growth denotes the share of the control response that was lost under treatment. High values mean a response far below the control, low ones a response near the control.

As for `CC(C)(C)NC(=O)[C@H]1CC[C@H]2[C@@H]3CC[C@H]4NC(=O)C=C[C@]4(C)[C@H]3CC[C@]12C` [Finasteride], in test [1] (1 mg/kg p.o., 21 days, testosterone 5 mg/kg s.c., mean ± SEM (n = 6)), the Prostate weight came to 0.27 ± 0.01 g. In test [1] (1 mg/kg p.o., 21 days, prostate growth vs BPH and control groups), this molecule returned an Inhibition of growth of 93.18%. Further, in test [1] (Finasteride treatment 1 mg/kg, vs BPH group), the “Reduction in prostate weight” value came to 2.51 fold. For the same molecule, the “Prostate weights, in words” value in test [1] (vs BPH group, p<0.001) is “reduced considerably”. Moreover, in test [2], the “Histological examination of prostate tissue” value is recorded as “near normal prostatic glands with mild focal inflammation”.
